# Experiment: passive permeability, PAMPA, ADME assay (AID 1508612)
# Settings: pH 7.4, 30.0 min, 50.0 µM
row,SMILES,Papp
1,Cc1sc2c(c1C)C(c1ccc(Cl)cc1)=N[C@H](CC(=O)NCCCCNC(=O)COc1cccc3c1C(=O)N([C@H]1CCC(=O)NC1=O)C3=O)c1nnc(C)n1-2,< 1 ×10⁻⁶ cm/s
2,CCOC(=O)c1csc(NC(=O)c2ccncc2NS(=O)(=O)c2ccc(C)cc2)n1,114 ×10⁻⁶ cm/s
3,CN(C(=O)COC(=O)c1csc(NCc2ccccc2)n1)c1ccccc1,> 1000 ×10⁻⁶ cm/s
4,COc1ccc(-n2nc(C3CCCN(C(=O)c4ccc(C)cc4)C3)[nH]c2=O)cc1 (centres undefined),685 ×10⁻⁶ cm/s
5,Cc1ccc(-c2cc(C(=O)Nc3ccc(S(=O)(=O)N(C)C)cc3)c3ccccc3n2)cc1C,23 ×10⁻⁶ cm/s
6,COc1ccc(C2=Nn3c([n+](C)c4ccccc43)SC2)cc1,< 1 ×10⁻⁶ cm/s
7,Cc1cc(CNC(=O)c2ccc3c(c2)n(CC2CC2)c(=O)n3C2CCCCC2)on1,964 ×10⁻⁶ cm/s
8,O=C(COC(=O)CCC(=O)c1cccs1)NCc1ccco1,121 ×10⁻⁶ cm/s
9,COc1ccc(C2c3c(oc4ccc(C)cc4c3=O)C(=O)N2CCCN2CCOCC2)cc1OC (centres undefined),403 ×10⁻⁶ cm/s
10,Cc1ccc(-n2nc3c(=O)n(CCCC(=O)NCc4ccccc4F)nc(C)c3c2C)cc1,920 ×10⁻⁶ cm/s
11,CCOC(=O)N1CCN(C(=O)Cn2sc3nc(C)cc(C)c3c2=O)CC1,47.1 ×10⁻⁶ cm/s
12,CCCC1=Nc2cc(C(=O)NC3CCCC3)ccc2Sc2ccc(C)cc21,662 ×10⁻⁶ cm/s
13,CCc1ccc2oc(NC3=NC(c4[nH]ncc4Cl)C4=C(CCCC4=O)N3)nc2c1 (centres undefined),916 ×10⁻⁶ cm/s
14,O=c1cc(CN2CCCN(c3ccc(C(F)(F)F)cn3)CC2)nc2ccccn12,> 1000 ×10⁻⁶ cm/s
15,CNc1ccc(Br)cc(C(=O)/C=C/c2ccc(OC)cc2OC)c1=O,143 ×10⁻⁶ cm/s
16,Cc1cc(C)c(C(=O)Nc2cccc([S+](=O)([O-])N3CCCC3)c2)[nH]1,948 ×10⁻⁶ cm/s
17,COc1ccc(CNC(=O)c2sc3nc(C)cc(C)c3c2N)cc1,> 1000 ×10⁻⁶ cm/s
18,CN(C)c1ccc(-c2csc(N3CCC(C(N)=O)CC3)n2)cc1,3.06 ×10⁻⁶ cm/s
19,COC(=O)C1=C(C)NC(=O)CC1C(=O)Nc1ccc(Cl)cc1 (centres undefined),126 ×10⁻⁶ cm/s
20,Cc1cc(Cl)ccc1COc1ccnn1-c1cc(C(=O)O)ccn1,5.16 ×10⁻⁶ cm/s

row,SMILES,Papp
1,CCCc1oc2ccc(NS(=O)(=O)c3ccc(OC)cc3)cc2c1C(=O)OCC,< 1 ×10⁻⁶ cm/s
2,Cc1cccc(-n2cnc3cc(C(=O)N4CCCC(C)C4)ccc32)c1 (centres undefined),> 1000 ×10⁻⁶ cm/s
3,Cc1ccc(S(=O)(=O)Nc2cnccc2C(=O)Nc2nc(-c3ccc(Cl)c(Cl)c3)cs2)cc1,51.5 ×10⁻⁶ cm/s
4,CCOc1ccc(CCNC(=O)c2cc3cccnc3n2Cc2cccc(C)n2)cc1OCC,744 ×10⁻⁶ cm/s
5,O=C(O)c1ccnc2cc(C(OCCN3CCCCC3)c3ccccc3Cl)[nH]c12 (centres undefined),< 1 ×10⁻⁶ cm/s
6,CC(=O)Nc1ccc(NC(=O)C(NS(=O)(=O)c2ccc(Br)s2)c2ccccc2)cc1 (centres undefined),224 ×10⁻⁶ cm/s
7,CN1CCN(c2cc(-c3nc(Nc4ccc(F)c(F)c4)c4ccccc4n3)ccn2)CC1,> 1000 ×10⁻⁶ cm/s
8,Cc1ccc(-n2nc(C)c3c(-c4ccc(O)c(O)c4)c(C#N)c(N)nc32)cc1C,187 ×10⁻⁶ cm/s
9,CS(=O)(=O)c1ccccc1-c1csc(N2CCC(C(N)=O)CC2)n1,11.9 ×10⁻⁶ cm/s
10,O=C(CCS(=O)(=O)c1nc(-c2cccs2)cc(C(F)(F)F)n1)Nc1ccc(OC(F)(F)F)cc1,5.76 ×10⁻⁶ cm/s
11,Cc1nn(CC(=O)NCCCN2CCC(N3CCCCC3)CC2)c(=O)c2cc(-c3ccccc3)nn12,15.4 ×10⁻⁶ cm/s
12,CC(C)n1cc(-c2ccc3c(c2)N(C)CC3)c2c(NS(=O)(=O)c3ccn(C)n3)ccnc21,> 1000 ×10⁻⁶ cm/s
13,Cc1cnc(-c2ccccc2C(F)F)nc1NCC1CN(c2cnccn2)C1,> 1000 ×10⁻⁶ cm/s
14,CC(C)c1nc(CN(C)C(=O)N[C@H](C(=O)N[C@@H](Cc2ccccc2)C[C@H](O)[C@H](Cc2ccccc2)NC(=O)OCc2cncs2)C(C)C)cs1,> 1000 ×10⁻⁶ cm/s
15,CC[C@H]1C=CC=CC[C@@H](C)[C@H](O)[C@@](C)(O)C(=O)[C@@H](C)[C@H](O)[C@@H](C)C(=O)[C@@H](C)[C@H](O)[C@@H](C)C=CC(=O)O[C@@H]2[C@@H](C)[C@H](CC1)O[C@]1(CC[C@H](C)[C@H](C[C@@H](C)O)O1)[C@H]2C,< 1 ×10⁻⁶ cm/s
16,Cc1ccc(S(=O)(=O)Nc2cnccc2C(=O)Nc2nc(-c3ccncc3)cs2)cc1,74.4 ×10⁻⁶ cm/s
17,CC(=O)NCCNC[C@@H]1C=C(C)[C@H](Cc2nnc(-c3ccccc3)o2)C[C@H]1C(C)C,624 ×10⁻⁶ cm/s
18,Cc1cnc(-c2ccccc2C2COC2)nc1NCc1ccc(-n2ccnn2)cc1,< 1 ×10⁻⁶ cm/s
19,O=C(Nc1nc(-c2ccccc2)cs1)c1ccncc1NS(=O)(=O)c1ccc2c(c1)CCC2,> 1000 ×10⁻⁶ cm/s
20,COc1ccc(CN2CCc3c(c(=O)n4ncc(C(=O)N5CCN(c6ccccc6OC)CC5)c4n3C)C2)cc1,445 ×10⁻⁶ cm/s

# Continued, values first:
row,Papp,SMILES
1,478 ×10⁻⁶ cm/s,O=C1Nc2cc(Cl)ccc2Nc2cscc21
2,525 ×10⁻⁶ cm/s,CCc1ccc(NC(=O)c2cc3ncccn3n2)cc1
3,> 1000 ×10⁻⁶ cm/s,Cc1noc(C)c1C(=O)N1CCC2(CC1)CCN(C(c1ccccc1)c1ccccc1)CC2
4,> 1000 ×10⁻⁶ cm/s,CNc1oc(-c2ccc(-c3ccccc3)cc2)nc1C#N
5,< 1 ×10⁻⁶ cm/s,O=C(Nc1ccc(Cl)cc1)C(NS(=O)(=O)c1cccs1)c1ccccc1 (centres undefined)
6,4.9 ×10⁻⁶ cm/s,Cc1sc2c(c1C)C(c1ccc(Cl)cc1)=N[C@@H](CC(=O)Nc1ccc(OCCOCCOCCOCCNc3cccc4c3C(=O)N(C3CCC(=O)NC3=O)C4=O)cc1)c1nnc(C)n1-2 (some centres undefined)
7,665 ×10⁻⁶ cm/s,O=C(NCC1(c2nc(-c3ccccc3)cs2)CCOCC1)c1cccc(-c2noc(C(F)(F)F)n2)c1
8,> 1000 ×10⁻⁶ cm/s,Cc1ccccc1C(C(=O)NC1CCCC1)N(C(=O)Cn1cnc2ccccc21)c1cccc(F)c1 (centres undefined)
9,20.9 ×10⁻⁶ cm/s,COc1ccc(-c2ccc(C(=O)NC3CC(c4cc(=O)[nH]c(N)n4)C3)o2)cc1 (centres undefined)
10,> 1000 ×10⁻⁶ cm/s,Cc1ccc(-c2nnc(Nc3ccc(Br)cc3)c3ccccc23)cc1S(=O)(=O)N1CCN(C)CC1
11,> 1000 ×10⁻⁶ cm/s,Cc1cnc(-c2ccccc2C(C)C)nc1NCc1ccc(-n2ccnn2)cc1
12,24.9 ×10⁻⁶ cm/s,O=C(c1ccccc1)N1CCC(C(=O)N2CCC(N3Cc4ccccc4C3=O)CC2)CC1
13,8.31 ×10⁻⁶ cm/s,NC1(c2ccc(NC(=O)c3ccnc(-c4cc(C(=O)O)ccn4)c3)cc2)CC1
14,253 ×10⁻⁶ cm/s,CC(=O)N1CCN(c2ccc(OCc3nn(C)c(C)c3-c3cccc4c(CCCOc5cccc6ccccc56)c(C(=O)O)n(Cc5cccnc5)c34)cc2)CC1
15,721 ×10⁻⁶ cm/s,CCn1c(C(=O)NCCc2ccc(OC)cc2)cc2sccc21
16,814 ×10⁻⁶ cm/s,Cc1ccc(S(=O)(=O)Nc2ncccc2C(=O)Nc2nc(-c3ccccc3)cs2)cc1
17,240 ×10⁻⁶ cm/s,Cc1cc(C)c2nc(-c3ccccn3)cc(C(=O)Nc3ccc(S(=O)(=O)Nc4onc(C)c4C)cc3)c2c1
18,12 ×10⁻⁶ cm/s,COCCN1CCNc2nc(COc3ccc(C(C)C)cc3)n(Cc3ccccc3)c2C1=O
19,355 ×10⁻⁶ cm/s,CS(=O)(=O)Nc1cccc(-c2nccc(-n3ccnc3)n2)c1
20,3.25 ×10⁻⁶ cm/s,COc1cc2c(cc1OC)C(C[C@H]1CN(S(=O)(=O)c3cccc(C#N)c3)CC[C@H]1CC(=O)O)=NCC2
21,< 1 ×10⁻⁶ cm/s,CCOc1cc(CCNC(=O)c2cc3sccc3n2Cc2ccccc2)cc(F)c1OCC
22,> 1000 ×10⁻⁶ cm/s,COCCNC(=O)c1ccc(-c2ccc(N3CCCCC3)nc2)cc1
23,> 1000 ×10⁻⁶ cm/s,CCn1c(C(=O)N2CCCC(C(=O)NCCc3ccc(C)cc3)C2)cc2sccc21 (centres undefined)
24,122 ×10⁻⁶ cm/s,Cc1n[nH]c(C)c1CCc1nc2c3ccccc3nc(SCC(=O)Nc3ccc(F)cc3)n2n1
25,> 1000 ×10⁻⁶ cm/s,CCOc1ccc(CCNC(=O)c2ccc3ccccc3n2)cc1OCC
26,> 1000 ×10⁻⁶ cm/s,CCN(CC)CCCCNc1ncc2cc(-c3c(Cl)cccc3Cl)c(NC(=O)NC(C)(C)C)nc2n1
27,874 ×10⁻⁶ cm/s,CC(C)C(=O)Nc1cccc(NC(=O)c2cc3ccccc3o2)c1
28,< 1 ×10⁻⁶ cm/s,CC(C)(C)c1cc(NC(=O)Nc2ccc(-c3cn4c(n3)sc3cc(OCCN5CCOCC5)ccc34)cc2)no1
29,328 ×10⁻⁶ cm/s,CC(=O)c1cccc(-c2csc(N3CCC(C(N)=O)CC3)n2)c1

# Reference: PubChem BioAssay AID1508612
